Calls of active or inactive are those of the source. How the calls were made is not given here.
Target: S. cerevisiae vacuolar pH, BCECF fluorescence
Test: vacuolar alkalinization by V-ATPase blockade – S. cerevisiae, BCECF dye, powder sets 2-3, dose response (AID 651731)
Settings: not given
In the case of O=C(c1cccc(Cl)n1)N1CCN(c2nc3ccc(F)cc3s2)CC1, the EC50 is reported as 37.4 µM. Work on O=C(c1cccc(C(F)(F)F)n1)N1CCN(c2nc3ccc(F)cc3s2)CC1 yielded an EC50 of 60.5 µM. With O=C(c1cccc(C(F)(F)F)c1)N1CCN(c2nc3ccc(F)cc3s2)CC1 the EC50 was 31.8 µM.

Target: not listed separately
Test: as above
Settings: S. cerevisiae vacuolar pH, BCECF fluorescence; at 100 µM (top of the series)
For Cc1cncc(C(=O)Nc2ccccc2N2CCOCC2)n1, the “response (vacuolar pH increase)” value was “inactive”. In the case of Cc1ccnc(C(=O)Nc2ccccc2N2CCOCC2)c1, the “response (vacuolar pH increase)” value is reported as “inactive”. With Cc1cncc(C(=O)N2CCN(c3nc4ccc(F)cc4s3)CC2)n1 the “response (vacuolar pH increase)” value was “inactive”. With CN(C)C(=O)c1cccc(C(=O)Nc2ccccc2N2CCOCC2)c1 the “response (vacuolar pH increase)” value was “inactive”. In the case of COCc1ccc(C(=O)N2CCN(c3nc4ccc(F)cc4s3)CC2)o1, the “response (vacuolar pH increase)” value is reported as “inactive”. In the case of CN(C)Cc1cccc(C(=O)Nc2ccccc2N2CCOCC2)c1, the “response (vacuolar pH increase)” value is reported as “inactive”. With O=C(c1ccc(-c2ccccc2)o1)N1CCN(c2nc3ccc(F)cc3s2)CC1 the “response (vacuolar pH increase)” value was “inactive”. In the case of O=C(Nc1ccccc1N1CCOCC1)c1ccc(C(F)(F)F)o1, the “response (vacuolar pH increase)” value is reported as “inactive”. For CN(C)C(=O)c1cccc(C(=O)N2CCN(c3nc4ccc(F)cc4s3)CC2)c1, the “response (vacuolar pH increase)” value was “inactive”. In the case of O=C(c1cccc(Br)n1)N1CCN(c2nc3ccc(F)cc3s2)CC1, the “response (vacuolar pH increase)” value is reported as “inactive”. With CN(C)Cc1cccc(C(=O)N2CCN(c3nc4ccc(F)cc4s3)CC2)c1 the “response (vacuolar pH increase)” value was “inactive”. For CS(=O)(=O)c1ccc(C(=O)N2CCN(c3nc4ccc(F)cc4s3)CC2)o1, the “response (vacuolar pH increase)” value was “inactive”. With NS(=O)(=O)c1cccc(C(=O)Nc2ccccc2N2CCOCC2)c1 the “response (vacuolar pH increase)” value was “inactive”. With CS(=O)(=O)c1cccc(C(=O)Nc2ccccc2N2CCOCC2)c1 the “response (vacuolar pH increase)” value was “inactive”. In the case of CS(=O)(=O)Cc1cccc(C(=O)N2CCN(c3nc4ccc(F)cc4s3)CC2)c1, the “response (vacuolar pH increase)” value is reported as “inactive”. In the case of Cc1cccc(C(=O)Nc2ccccc2N2CCOCC2)n1, the “response (vacuolar pH increase)” value is reported as “inactive”. With CN(C)S(=O)(=O)c1cccc(C(=O)N2CCN(c3nc4ccc(F)cc4s3)CC2)c1 the “response (vacuolar pH increase)” value was “inactive”. With O=C(c1cc(CO)ccn1)N1CCN(c2nc3ccc(F)cc3s2)CC1 the “response (vacuolar pH increase)” value was “inactive”. In the case of O=C(Nc1ccccc1N1CCOCC1)c1cc(Cl)ccn1, the “response (vacuolar pH increase)” value is reported as “inactive”. With CN(C)S(=O)(=O)c1cccc(C(=O)Nc2ccccc2N2CCOCC2)c1 the “response (vacuolar pH increase)” value was “inactive”. For O=C(Nc1ccccc1N1CCOCC1)c1cncc(Cl)n1, the “response (vacuolar pH increase)” value was “inactive”. With NC(=O)c1cccc(C(=O)N2CCN(c3nc4ccc(F)cc4s3)CC2)c1 the “response (vacuolar pH increase)” value was “inactive”. In the case of CS(=O)(=O)c1ccc(C(=O)Nc2ccccc2N2CCOCC2)o1, the “response (vacuolar pH increase)” value is reported as “inactive”. For O=C(Nc1ccccc1N1CCOCC1)c1cccc(C(F)(F)F)c1, the “response (vacuolar pH increase)” value was “inactive”. With Nc1cncc(C(=O)N2CCN(c3nc4ccc(F)cc4s3)CC2)n1 the “response (vacuolar pH increase)” value was “inactive”. With Nc1ncc(C(=O)Nc2ccccc2N2CCOCC2)o1 the “response (vacuolar pH increase)” value was “inactive”. For O=C(Nc1ccccc1N1CCOCC1)c1ccc(-c2ccccc2)o1, the “response (vacuolar pH increase)” value was “inactive”. For Cc1ccc(C(=O)N2CCN(c3nc4ccc(F)cc4s3)CC2)o1, the “response (vacuolar pH increase)” value was “inactive”. For O=C(Nc1ccccc1N1CCOCC1)c1cccc(Cl)n1, the “response (vacuolar pH increase)” value was “inactive”. In the case of CN(C)Cc1ccc(C(=O)N2CCN(c3nc4ccc(F)cc4s3)CC2)o1, the “response (vacuolar pH increase)” value is reported as “inactive”. With NC(=O)c1ccc(C(=O)N2CCN(c3nc4ccc(F)cc4s3)CC2)o1 the “response (vacuolar pH increase)” value was “inactive”. In the case of O=C(c1cc(Cl)ccn1)N1CCN(c2nc3ccc(F)cc3s2)CC1, the “response (vacuolar pH increase)” value is reported as “inactive”. In the case of NS(=O)(=O)c1cccc(C(=O)N2CCN(c3nc4ccc(F)cc4s3)CC2)c1, the “response (vacuolar pH increase)” value is reported as “inactive”. In the case of COCc1cccc(C(=O)N2CCN(c3nc4ccc(F)cc4s3)CC2)c1, the “response (vacuolar pH increase)” value is reported as “inactive”. In the case of CC(C)(C)c1ccc(C(=O)Nc2ccccc2N2CCOCC2)o1, the “response (vacuolar pH increase)” value is reported as “inactive”. With O=C(c1ccc(C(F)(F)F)o1)N1CCN(c2nc3ccc(F)cc3s2)CC1 the “response (vacuolar pH increase)” value was “inactive”. In the case of CN(C)Cc1ccc(C(=O)Nc2ccccc2N2CCOCC2)o1, the “response (vacuolar pH increase)” value is reported as “inactive”. For O=C(Nc1ccccc1N1CCOCC1)c1cccc(Br)n1, the “response (vacuolar pH increase)” value was “inactive”. In the case of N#Cc1cccc(C(=O)Nc2ccccc2N2CCOCC2)c1, the “response (vacuolar pH increase)” value is reported as “inactive”. In the case of O=C(Nc1ccccc1N1CCOCC1)c1ccc(Br)o1, the “response (vacuolar pH increase)” value is reported as “inactive”. In the case of N#Cc1cccc(C(=O)N2CCN(c3nc4ccc(F)cc4s3)CC2)c1, the “response (vacuolar pH increase)” value is reported as “inactive”. In the case of NS(=O)(=O)c1ccc(C(=O)N2CCN(c3nc4ccc(F)cc4s3)CC2)o1, the “response (vacuolar pH increase)” value is reported as “inactive”. With Cc1cccc(C(=O)N2CCN(c3nc4ccc(F)cc4s3)CC2)n1 the “response (vacuolar pH increase)” value was “inactive”. In the case of O=C(c1cncc(Cl)n1)N1CCN(c2nc3ccc(F)cc3s2)CC1, the “response (vacuolar pH increase)” value is reported as “inactive”. With Cc1ccc(C(=O)Nc2ccccc2N2CCOCC2)o1 the “response (vacuolar pH increase)” value was “inactive”. With O=C(c1ccc(Br)o1)N1CCN(c2nc3ccc(F)cc3s2)CC1 the “response (vacuolar pH increase)” value was “inactive”. In the case of O=C(c1cc(C(F)(F)F)ccn1)N1CCN(c2nc3ccc(F)cc3s2)CC1, the “response (vacuolar pH increase)” value is reported as “inactive”. In the case of O=C(Nc1ccccc1N1CCOCC1)c1cc(C(F)(F)F)ccn1, the “response (vacuolar pH increase)” value is reported as “inactive”. For COCc1ccc(C(=O)Nc2ccccc2N2CCOCC2)o1, the “response (vacuolar pH increase)” value was “inactive”. For NC(=O)c1cccc(C(=O)Nc2ccccc2N2CCOCC2)c1, the “response (vacuolar pH increase)” value was “inactive”. For Cc1ccnc(C(=O)N2CCN(c3nc4ccc(F)cc4s3)CC2)c1, the “response (vacuolar pH increase)” value was “inactive”. With N#Cc1ccnc(C(=O)N2CCN(c3nc4ccc(F)cc4s3)CC2)c1 the “response (vacuolar pH increase)” value was “inactive”. For COCc1cccc(C(=O)Nc2ccccc2N2CCOCC2)c1, the “response (vacuolar pH increase)” value was “inactive”. With O=C(Nc1ccccc1N1CCOCC1)c1cccc(C(F)(F)F)n1 the “response (vacuolar pH increase)” value was “inactive”. In the case of Nc1cncc(C(=O)Nc2ccccc2N2CCOCC2)n1, the “response (vacuolar pH increase)” value is reported as “inactive”. In the case of Nc1ncc(C(=O)N2CCN(c3nc4ccc(F)cc4s3)CC2)o1, the “response (vacuolar pH increase)” value is reported as “inactive”. For CC(C)(C)c1ccc(C(=O)N2CCN(c3nc4ccc(F)cc4s3)CC2)o1, the “response (vacuolar pH increase)” value was “inactive”. With N#Cc1ccnc(C(=O)Nc2ccccc2N2CCOCC2)c1 the “response (vacuolar pH increase)” value was “inactive”.
